# Experimental data from US4370489A, “Herbicidal compounds” (Hoechst Aktiengesellschaft, priority 1976, dated 1983).
# Experiments:
# Alopecurus myos. = test: Post-emergence treatment, pots on a site without roof, blackgrass (Example IV, Table IV); assay type: in vivo, annual black-grass (Alopecurus); conditions: for Effect (evaluation scheme), Alopecurus myos.: post-emergence, emulsion concentrate
# Description: (§1) The results and also the results of all following examples were evaluated 4 weeks later according to the following scheme:
# (§2) In summer a further experiment was carried through under similar conditions to compare the effect of compound 1a with that of comparative compound A. Both compounds were used in the form of an emulsion concentrate (Table IV).
# (§3) Post-emergence treatment (evaluation scheme); experiment
# (§4) in pots on a site without roof
# wild oat [1] = test: Field trial in wild oat, post-emergence treatment (Example VI, Table VI); assay type: in vivo; conditions: for efficiency in % (counting of panicles) / evaluation 5 weeks after treatment: post-emergence
# Description: In a field trial compound 1a of the invention was sprayed in the form of a 36% wettable powder formulation onto wild oat (single system, natural growth) after the plants had developed 3 or 4 leaves.
# Three lots each were treated with different concentrations of the active compound and the comparative compound, the amount of spray liquor applied being 600 liters per hectare. Besides the usual visual evaluation at the end of the trial, the number of panicles per square meter was counted. In the untreated lots 400 to 500 panicles were counted per square meter, i.e. the field was heavily infected.
# The relations are still more distinct when the amount of active compound required for a 90% effect is determined by the probit method (graphical evaluation) mentioned in Example II.
# Digitaria = test: Post-emergence greenhouse pot trial, Digitaria (Example I, Table I); assay type: in vivo; conditions: greenhouse pots, 4 weeks
# Description: (§5) Seeds of weed grasses were sown in pots filled with loamy soil and placed in the greenhouse for germination and emergence. As soon as the plants had developed 3 or 4 leaves, they were sprayed with wettable powder formulations, suspended in water, of compounds according to the invention.
# as §1
# (§6) 4 is still considered an acceptable herbicidal effect in weeds and a satisfactory preserving effect in crop plants (cf. Bolle, Nachrichtenblatt des Deutschen Pflanzenschutzdienstes 16, 1964, pages 92-94).
# (§7) Effect on weed grasses in a post-emergence trial in pots
# (§8) in the greenhouse (Evaluation scheme)
# wild oat [2] = test: Post-emergence trial in the greenhouse, wild oat (Example VII, Table VII); assay type: in vivo; conditions: 31 kg/hectare, emulsion concentrate, 4 weeks after treatment
# Description: as §1
# In a greenhouse some of the compounds of the invention were sprayed on plants of wild oat, the compounds being used as emulsion concentrates.
# Post-emergence trial in the greenhouse
# Effect on wild oat 4 weeks after treatment
# Dose 31 kg/hectare of active compound (as emulsion
# sugar beet = test: Post emergence treatment in two stages, boxes on a site without roof, sugar beet (Table III); assay type: in vivo; conditions: 0.9 kg/hectare
# Description: as §1
# Effect on wild oat and sugar beet
# Post emergence treatment in two stages of development
# boxes 20 × 24 × 22 cm in size on a site without roof
# Alopecurus = test: Post-emergence greenhouse pot trial, annual blackgrass (Example I, Table I); assay type: in vivo, annual blackgrass (Alopecurus); conditions: greenhouse pots, 4 weeks
# Description: as §5, §1, §6, §7, §8
# Avena fatua = test: Post-emergence treatment, pots on a site without roof, Avena fatua (Example IV, Table IV); assay type: in vivo; conditions: for Effect (evaluation scheme), Avena fatua: post-emergence, emulsion concentrate
# Description: as §1, §2, §3, §4
# spring barley = test: Post-emergence treatment, pots on a site without roof, spring barley (Example IV, Table IV); assay type: in vivo; conditions: emulsion concentrate; note: ranges in brackets are in %
# Description: as §1, §2, §3, §4
# spring wheat = test: Post-emergence treatment, pots on a site without roof, spring wheat (Example IV, Table IV); assay type: in vivo; conditions: emulsion concentrate; note: ranges in brackets are in %
# Description: as §1, §2, §3, §4
# Echinochloa [3] = test: Post-emergence greenhouse pot trial, Echinochloa (Example I, Table I); assay type: in vivo; conditions: greenhouse pots, 4 weeks
# Description: as §5, §1, §6, §7, §8
# weed grasses = test: Pre-emergence greenhouse pot trial, weed grasses overall (Example V); assay type: in vivo; conditions: in words
# Description: as §1
# (§9) In a greenhouse the compounds to be tested were sprayed on the surface of the soil directly after sowing. […] Dicotyledonous crop plants (the same as used in Example I) were not damaged by the applied amounts.
# (§10) Effect on weed grasses in a pre-emergence process (evalua-
# (§11) tion scheme) experiment in pots in the greenhouse.
# Echinochloa [4] = test: Pre-emergence greenhouse pot trial, Echinochloa (Example V, Table V); assay type: in vivo
# Description: as §1, §9, §10, §11
# Setaria = test: Post-emergence greenhouse pot trial, Setaria (Example I, Table I); assay type: in vivo; conditions: greenhouse pots, 4 weeks
# Description: as §5, §1, §6, §7, §8
smiles,measurement,setting,value
"COC(=O)C(C)Oc1ccc(Oc2ccc(Br)cc2Cl)cc1 (stereo not drawn) [Compound 1a, Methyl-4-(2'-chloro-4'-bromophenoxy)-α-phenoxy-propionate]","Effect (evaluation scheme), Alopecurus myos.",Alopecurus myos.; 0.45 kg/hectare,3 (95.0 to <.97.5)
same,"Effect (evaluation scheme), Alopecurus myos.",Alopecurus myos.; 0.9 kg/hectare,1 (100)
same,response of annual black-grass (Alopecurus),Alopecurus myos.; in words,responded very well
same,efficiency in % (counting of panicles),wild oat [1]; 0.54 kg/hectare,79.0%
same,evaluation 5 weeks after treatment,wild oat [1]; 0.54 kg/hectare,7 (65.0 to <75.0)
same,efficiency in % (counting of panicles),wild oat [1]; 0.72 kg/hectare,90.0%
same,evaluation 5 weeks after treatment,wild oat [1]; 0.72 kg/hectare,5 (85.0 to <90.0)
same,efficiency in % (counting of panicles),wild oat [1]; 0.90 kg/hectare,97.4%
same,evaluation 5 weeks after treatment,wild oat [1]; 0.90 kg/hectare,3 (95.0 to <.97.5)
same,amount sufficient compared with the comparative compound (90% effect),wild oat [1]; probit method,about 1/4
same,amount of active compound required for a 90% effect,"wild oat [1]; without wetting agent, probit method (graphical evaluation)",0.68 kg/hectare
same,"Effect on weed grasses (evaluation scheme number), Digitaria",Digitaria; 0.15 kg/hectare,6 (75.0 to <85.0)
same,"Effect on weed grasses (evaluation scheme number), Digitaria",Digitaria; 0.62 kg/hectare,1 (100)
same,"Effect on weed grasses (evaluation scheme number), Digitaria",Digitaria; 2.5 kg/hectare,1 (100)
same,effect (number) on wild oat,wild oat [2],1 (100)
same,sugar beet number,sugar beet; 2-leaf stage,2 (0 to 2.5)
same,sugar beet number,sugar beet; 4-leaf stage,2 (0 to 2.5)
same,"Effect on weed grasses (evaluation scheme number), Alopecurus",Alopecurus; 0.15 kg/hectare,3 (95.0 to <.97.5)
same,"Effect on weed grasses (evaluation scheme number), Alopecurus",Alopecurus; 0.62 kg/hectare,1 (100)
same,"Effect on weed grasses (evaluation scheme number), Alopecurus",Alopecurus; 2.5 kg/hectare,1 (100)
same,"Effect (evaluation scheme), Avena fatua",Avena fatua; 0.225 kg/hectare,7 (65.0 to <75.0)
same,"Effect (evaluation scheme), Avena fatua",Avena fatua; 0.45 kg/hectare,6 (75.0 to <85.0)
same,"Effect (evaluation scheme), Avena fatua",Avena fatua; 0.9 kg/hectare,5 (85.0 to <90.0)
same,effect on Avena fatua compared with comparative compound,Avena fatua; in words,distinctly better effect than the comparative compound
same,"evaluation scheme, spring barley",spring barley; 0.225 kg/hectare,1 (0)
same,"evaluation scheme, spring barley",spring barley; 0.45 kg/hectare,1 (0)
same,"evaluation scheme, spring barley",spring barley; 0.9 kg/hectare,1 (0)
same,"evaluation scheme, spring wheat",spring wheat; 0.225 kg/hectare,1 (0)
same,"evaluation scheme, spring wheat",spring wheat; 0.45 kg/hectare,1 (0)
same,"evaluation scheme, spring wheat",spring wheat; 0.9 kg/hectare,1 (0)
same,"Effect on weed grasses (evaluation scheme number), Echinochloa",Echinochloa [3]; 0.15 kg/hectare,2 (97.5 to <100)
same,"Effect on weed grasses (evaluation scheme number), Echinochloa",Echinochloa [3]; 0.62 kg/hectare,2 (97.5 to <100)
same,"Effect on weed grasses (evaluation scheme number), Echinochloa",Echinochloa [3]; 2.5 kg/hectare,1 (100)
same,effect in pre-emergence treatment compared with comparative compound A,weed grasses,better effect
same,"Effect on weed grasses (evaluation scheme), Echinochloa",Echinochloa [4]; 0.62 kg/hectare,3 (95.0 to <.97.5)
same,"Effect on weed grasses (evaluation scheme), Echinochloa",Echinochloa [4]; 1.25 kg/hectare,2 (97.5 to <100)
same,"Effect on weed grasses (evaluation scheme number), Setaria",Setaria; 0.15 kg/hectare,2 (97.5 to <100)
same,"Effect on weed grasses (evaluation scheme number), Setaria",Setaria; 0.62 kg/hectare,1 (100)
same,"Effect on weed grasses (evaluation scheme number), Setaria",Setaria; 2.5 kg/hectare,1 (100)
